Experimental data published in patent US5362744A, “Tetrazole-substituted urea acat inhibitors” (Warner-Lambert Company, priority 1993, dated 1994).

What was measured:
[1] = tested on: total cholesterol; test: in vivo screen designated APCC (total cholesterol in rats on PCC diet); parameters: species or system male Sprague-Dawley rats; settings: Rattus norvegicus, PCC diet overnight, read-out: APCC (%ΔTC): percent change in total cholesterol between control and drug-treated animals
Text: In one in vivo screen designated APCC, male Sprague-Dawley rats (200 to 225 g) were randomly divided into treatment groups and dosed at 4 PM with either vehicle (CMC/Tween) or suspensions of compounds in vehicle. The normal chow diet was then replaced with the PCC diet (5.5% peanut oil, 1.5% cholesterol, and 0.5% cholic acid). The rats consumed this diet ad libitum during the night and were sacrificed at 8 AM to obtain blood samples for cholesterol analysis using standard procedures. Statistical differences between mean cholesterol values for the same vehicle were determined using analysis of variance followed by Fisher's least significant test. The results of this trial for representative compounds of the present invention appear in Table II wherein percent change means the difference in total cholesterol between control, and the drug-treated animals.

[2] = tested on: adrenal gland; test: in vivo toxicity screen in guinea pigs (adrenal histopathology); parameters: species or system male guinea pigs of the Hartley strain; settings: 100 mg/kg daily by gavage, 2 weeks; for adrenal toxicity class: oleic acid vehicle
Method: The nontoxic nature of representative compounds of the present invention was measured and compared against previously disclosed tetrazole urea ACAT inhibitors using an in vivo toxicity screen developed by Dominick, et al., 1993. Male guinea pigs of the Hartley strain (450-500 g) were obtained from Charles River and randomly divided into treatment groups. They were fed standard guinea pig chow ad libitum and dosed daily (AM) by gavage (100 mg/kg). The test compounds were dissolved or suspended in an oleic acid vehicle to facilitate absorption. After 2 weeks the animals were sacrificed by CO2 asphyxiation in the nonfasted state 16 hours after the last dose. Adrenal glands were weighed, fixed in 10% formalin, processed by routine paraffin techniques, sectioned, and then stained with hematoxylin and eosin for light microscopy. Toxicity was defined by the incidence, severity, and complexity of adrenal histopathologic alterations in the zona fasciculata (e.g., adrenal cortical atrophy, increased coarse vacuolation, single cell necrosis, inflammatory cell infiltrates, mineralization/ectopic bone formation, and increased cytoplasmic eosinophilia).

Row | Compound | change in vivo at 30 mg/kg [1] | further results
1 | CC(C)c1cccc(C(C)C)c1NC(=O)N(c1ccccc1)c1nnn(CCCCCCCCOC2CCCCO2)n1 (racemic) [Example 10, (±)N'-[2,6-bis(1-methylethyl)phenyl]-N-phenyl-N-[2-[8-[(tetrahydro-2H-pyran-2-yl)oxy]octyl]-2H-tetrazol-5-yl]-urea] | -42% | –
2 | COc1cc(OC)c(NC(=O)N(c2ccccc2)c2nnn(CCCCCCCCOC3CCCCO3)n2)c(OC)c1 (racemic) [Example 11, (±)N-phenyl-N-[2-[8-[(tetrahydro-2H-pyran-2-yl)oxy]octyl]-2H-tetrazol-5-yl]-N'-(2,4,6-trimethoxyphenyl)-urea] | -50% | –
3 | O=C(Nc1ccc(F)cc1F)N(c1ccccc1)c1nnn(CCCCCCCCOC2CCCCO2)n1 (racemic) [Example 12, (±)N'-(2,4-difluorophenyl)-N-phenyl-N-[2-[8-[(tetrahydro-2H-pyran-2-yl)oxy]octyl]-2H-tetrazol-5-yl]-urea] | -37% | –
4 | CCCCCCCCCCCCn1nnc(N(C(=O)Nc2c(C(C)C)cccc2C(C)C)c2ccccc2)n1 [Example 1, N'-[2,6-Bis(1-methylethyl)phenyl]-N-(2-dodecyl-2H-tetrazol-5-yl)-N-phenyl-urea] | -52% | –
5 | CCCCCCCCCCCCn1nnc(N(C(=O)Nc2c(OC)cc(OC)cc2OC)c2ccccc2)n1 [Example 2, N-(2-dodecyl-2H-tetrazol-5-yl)-N-phenyl-N'-(2,4,6-trimethoxyphenyl)-urea] | -74% | –
6 | CCCCCCCCCCCCn1nnc(N(C(=O)Nc2ccc(F)cc2F)c2ccccc2)n1 [Example 3, N'-(2,4-Difluorophenyl)-N-(2-dodecyl-2H-tetrazol-5-yl)-N-phenyl-urea] | -63% | –
7 | CCCCCCCCCCCCn1nnc(N(C(=O)Nc2c(C(C)C)cccc2C(C)C)C2CCCCC2)n1 [Example 4, N'-[2,6-bis(1-methylethyl)phenyl]-N-cyclohexyl-N-(2-dodecyl-2H-tetrazol-5-yl)-urea] | -10% | –
8 | CCCCCCCCCCCCn1nnc(N(C(=O)Nc2c(OC)cc(OC)cc2OC)C2CCCCC2)n1 [Example 5, N-cyclohexyl-N-(2-dodecyl-2H-tetrazol-5-yl)-N'-(2,4,6-trimethoxyphenyl)-urea] | -67% | drug related adrenal changes [2]: no drug related adrenal changes; adrenal toxicity class [2]: nontoxic to the adrenal gland
9 | CCCCCCCCCCCCn1nnc(N(C(=O)Nc2ccc(F)cc2F)C2CCCCC2)n1 [Example 6, N-Cyclohexyl-N'-(2,4-difluorophenyl)-N-(2-dodecyl-2H-tetrazol-5-yl)-urea] | -33% | –
10 | CCCCCCCCCCCCCCn1nnc(N(C(=O)Nc2c(OC)cc(OC)cc2OC)c2ccccc2)n1 [Example 7, N-phenyl-N-(2-tetradecyl-2H-tetrazol-5-yl)-N'-(2,4,6-trimethoxyphenyl)-urea] | -22% | –
11 | CCCCCn1nnc(N(C(=O)Nc2c(OC)cc(OC)cc2OC)c2ccccc2)n1 [Example 8, N-(2-pentyl-2H-tetrazol-5-yl)-N-phenyl-N'-(2,4,6-trimethoxyphenyl)-urea] | -43% | –
12 | CCCCCCCCCCCCn1nnc(CN(Cc2ccccc2)C(=O)Nc2c(OC)cc(OC)cc2OC)n1 [Example 9, N-(2-Dodecyl-2H-tetrazol-5-ylmethyl)-N-(phenylmethyl)-N'-(2,4,6-trimethoxyphenyl)-urea] | -49% | –
13 | CC(C)c1cccc(C(C)C)c1NC(=O)N(c1ccccc1)c1nnn(CCCCCCCCO)n1 [Example 13, N'-[2,6-Bis(1-methylethyl)phenyl]-N-[2-(8-hydroxyoctyl)-2H-tetrazol-5-yl]-N-phenyl-urea] | -17% | –
14 | COc1cc(OC)c(NC(=O)N(c2ccccc2)c2nnn(CCCCCCCCO)n2)c(OC)c1 [Example 14, N-[2-(8-hydroxyoctyl)-2H-tetrazol-5-yl]-N-phenyl-N'-(2,4,6-trimethoxyphenyl)-urea] | -15% | –
15 | CC(C)c1cccc(C(C)C)c1NC(=O)N(c1ccccc1)c1nnn(CCCCCCCC=O)n1 [Example 15, N'-[2,6-bis(1-methylethyl)phenyl]-N-[2-(8-oxooctyl)-2H-tetrazol-5-yl]-N-phenyl-urea] | -29% | –
16 | COc1cc(OC)c(NC(=O)N(c2ccccc2)c2nnn(CCCCCCCC=O)n2)c(OC)c1 [Example 16, N-[2-(8-oxooctyl)-2H-tetrazol-5-yl]-N-phenyl-N'-(2,4,6-trimethoxyphenyl)-urea] | -8% | –
17 | CCN(CC)CCCCCCCCn1nnc(N(C(=O)Nc2c(C(C)C)cccc2C(C)C)c2ccccc2)n1 [Example 17, N'-[2,6-bis(1-methylethyl)phenyl]-N-[2-[8-(diethylamino)octyl]-2H-tetrazol-5-yl]-N-phenyl-urea] | -30% | –
18 | CCCCCCCCCCCCn1nnc(NC(=O)Nc2c(C(C)C)cccc2C(C)C)n1 [N-[2,6-bis(1-methylethyl)-phenyl]-N'-(2-dodecyl-2H-tetrazol-5-yl)-urea] | – | cytotoxic zonal atrophy of the zona fasciculata (treated animals affected) [2]: 3/6; increased coarse vacuoles (animals affected) [2]: 5/6; inflammatory cell infiltrates (animals affected) [2]: 2/6; necrosis of the adrenal cortex (animals affected) [2]: 2/6; adrenal toxicity class [2]: highly toxic to the adrenal gland
19 | CCCCCCCCCCCCCn1nnc(NC(=O)Nc2c(C(C)C)cccc2C(C)C)n1 [N-[2,6-bis(1-methylethyl)-phenyl]-N'-(2-tridecyl-2H-tetrazol-5-yl)-urea] | – | cytotoxic zonal atrophy of the zona fasciculata (treated animals affected) [2]: 4/6; increased coarse vacuoles (animals affected) [2]: 5/6; inflammatory cell infiltrates (animals affected) [2]: 2/6; necrosis of the adrenal cortex (animals affected) [2]: 3/6; adrenal toxicity class [2]: highly toxic to the adrenal gland
